Results taken from patent publication US7271171B2, “Adenosine A3 receptor modulators” (King Pharmaceuticals Research and Development, Inc., priority 1998, dated 2007).

Experiments:
[1] = biological target: T1, adenosine A3 receptors in HL60 membranes (Homo sapiens, UniProt P0DMS8); experiment: Saturation binding of radioligand of Compound 108, HL60 membranes
T1 construct: endogenous in cells; host or cells: HL60 (promyelocytic human leukaemia)
T1 sequence (P0DMS8 1-318): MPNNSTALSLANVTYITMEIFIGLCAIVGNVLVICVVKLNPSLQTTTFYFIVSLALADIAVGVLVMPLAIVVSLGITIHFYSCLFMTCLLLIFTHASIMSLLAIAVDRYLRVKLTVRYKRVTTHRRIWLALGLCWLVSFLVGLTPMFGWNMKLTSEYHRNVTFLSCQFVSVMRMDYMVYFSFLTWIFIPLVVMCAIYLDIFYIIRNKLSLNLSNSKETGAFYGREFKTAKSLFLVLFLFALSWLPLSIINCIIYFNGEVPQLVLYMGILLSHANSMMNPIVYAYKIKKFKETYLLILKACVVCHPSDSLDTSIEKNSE

[2] = biological target: T2, adenosine A3 receptors in Jurkat cell membranes (Homo sapiens, UniProt P0DMS8); experiment: Saturation binding of radioligand of Compound 108, Jurkat cell membranes
T2 construct: endogenous in cells; host or cells: Jurkat (human T-cell leukaemia)
T2 sequence (P0DMS8 1-318): T1 sequence (P0DMS8 1-318)

[3H]CC([3H])Cn1cc2c(nc(NC(=O)Nc3ccc(OC)cc3)n3nc(-c4ccco4)nc23)n1 (stereo not shown) [radioligand of Compound 108, 5-[[(4-methoxyphenyl)amino]carbonyl]amino-8-(1,2-ditritiopropyl)-2-(2-furyl)-pyrazolo[4,3-e]1,2,4-triazolo[1,5-c]pyrimidine]
Bmax value / A3 receptor density detected ([1]; FIG. 5): 626±42 fmol/mg protein
Bmax value / A3 receptor density detected ([1]; FIG. 5, listed as tritiated analogue of Compound 108): ~650 fmol/mg protein
Bmax value ([2]; Jurkat cell membranes, FIG. 4, n=3): 1.30±0.03 pmol/mg protein
A3 receptor density detected ([2]; Jurkat cells): approximately 1300 fmol/mg protein
